Measured values from patent US20080194701A1, “Bifunctional Enzyme with Y-Glutamylcysteine Synthetase and Glutathione Synthetase Activity and Uses Thereof” (priority 2004, published 2008).
Like-named read-outs stand apart in the source and are kept apart here.

How the values were obtained:
[1] = biological target: T1, S. agalactiae γ-GCS-GS (Streptococcus agalactiae serotype V, UniProt Q8DXM9); assay: γ-GCS activity assay based on ADP formation, S. agalactiae γ-GCS-GS; format: biochemical; set-up: corresponded to full-length S. agalactiae γ-GCS-GS with an N-terminal His8-tag; made in house; host or cells: E. coli SG13009 with pQE30-gshAB plus pREP4 or pRARE; conditions: for Vmax: unit = 1 μmol product per hour
T1 sequence (Q8DXM9 1-750): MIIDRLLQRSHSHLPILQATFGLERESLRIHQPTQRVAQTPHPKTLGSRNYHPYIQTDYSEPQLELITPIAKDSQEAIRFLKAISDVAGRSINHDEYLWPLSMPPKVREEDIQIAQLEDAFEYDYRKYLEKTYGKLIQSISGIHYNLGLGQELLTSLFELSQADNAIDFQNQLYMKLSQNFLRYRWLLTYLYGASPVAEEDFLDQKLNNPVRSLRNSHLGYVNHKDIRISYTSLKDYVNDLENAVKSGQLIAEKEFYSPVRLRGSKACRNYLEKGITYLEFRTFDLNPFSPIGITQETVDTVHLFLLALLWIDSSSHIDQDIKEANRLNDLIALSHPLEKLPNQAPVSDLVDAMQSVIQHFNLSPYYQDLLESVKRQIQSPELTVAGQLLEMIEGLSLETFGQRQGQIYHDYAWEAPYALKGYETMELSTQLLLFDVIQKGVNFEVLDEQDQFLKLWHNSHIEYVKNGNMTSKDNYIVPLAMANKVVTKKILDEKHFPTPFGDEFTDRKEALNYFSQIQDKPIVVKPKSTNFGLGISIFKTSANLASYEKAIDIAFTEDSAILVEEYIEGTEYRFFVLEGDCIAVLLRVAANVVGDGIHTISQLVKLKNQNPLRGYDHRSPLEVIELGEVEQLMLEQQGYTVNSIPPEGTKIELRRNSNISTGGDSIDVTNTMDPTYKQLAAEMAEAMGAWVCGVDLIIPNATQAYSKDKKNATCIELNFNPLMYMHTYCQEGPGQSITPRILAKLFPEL
Experimental: In Table 1, a unit was defined as the amount of enzyme activity required to catalyze the formation of 1 μmol of product per hour. Specific activity was shown as units per mg protein. Activity was determined at 37° C. based on ADP formation in reaction mixtures containing L-glutamate and L-cysteine and using pyruvate kinase and lactate dehydrogenase to couple ADP formation to NADH oxidation, which was monitored at 340 nm.
Exp. Purif. 13, 268-276 (1998).
At set time points ranging from one to 30 minutes, 5 μl aliquots were removed and assayed for residual enzyme activity using the standard γ-GCS assay based on ADP formation.

[2] = biological target: E. coli γ-GCS (Escherichia coli, UniProt P0A6W9); conditions: cited from earlier work; for Vmax: unit = 1 μmol product per hour; for Km: substrate Km
[3] = biological target: T2, Human γ-GCS (Homo sapiens, UniProt P48506); conditions: cited from earlier work; for Ki: read-out: Ki; for Km: substrate Km; for Vmax: unit = 1 μmol product per hour
T2 sequence (P48506 1-637): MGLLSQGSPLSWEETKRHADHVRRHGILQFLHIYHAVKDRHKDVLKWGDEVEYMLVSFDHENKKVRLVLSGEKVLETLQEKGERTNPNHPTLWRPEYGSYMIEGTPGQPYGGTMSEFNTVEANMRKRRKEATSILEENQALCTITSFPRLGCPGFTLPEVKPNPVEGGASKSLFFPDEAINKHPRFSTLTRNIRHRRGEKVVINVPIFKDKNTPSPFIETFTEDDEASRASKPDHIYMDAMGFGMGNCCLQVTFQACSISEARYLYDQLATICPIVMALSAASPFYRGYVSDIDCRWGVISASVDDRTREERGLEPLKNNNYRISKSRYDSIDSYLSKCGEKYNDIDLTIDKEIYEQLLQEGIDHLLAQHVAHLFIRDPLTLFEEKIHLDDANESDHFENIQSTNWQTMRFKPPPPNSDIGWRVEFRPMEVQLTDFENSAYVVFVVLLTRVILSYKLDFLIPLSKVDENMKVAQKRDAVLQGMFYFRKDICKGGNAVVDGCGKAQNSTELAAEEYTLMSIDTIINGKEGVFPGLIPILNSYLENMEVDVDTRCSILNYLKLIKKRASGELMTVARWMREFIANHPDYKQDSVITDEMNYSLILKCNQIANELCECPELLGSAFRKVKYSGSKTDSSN
T2 sequence (P48507 1-274 partner): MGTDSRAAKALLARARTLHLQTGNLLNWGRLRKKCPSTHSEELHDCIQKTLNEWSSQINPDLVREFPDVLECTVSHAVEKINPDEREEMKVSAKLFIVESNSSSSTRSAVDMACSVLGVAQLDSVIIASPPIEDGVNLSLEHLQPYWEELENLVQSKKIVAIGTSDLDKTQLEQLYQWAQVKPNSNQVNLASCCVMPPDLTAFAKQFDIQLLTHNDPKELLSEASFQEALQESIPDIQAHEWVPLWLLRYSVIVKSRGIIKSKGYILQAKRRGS

[4] = biological target: T1, S. agalactiae γ-GCS-GS; assay: GS activity assay based on ADP formation, S. agalactiae γ-GCS-GS; conditions: GSH concentrations of up to 100 mM
Experimental: Transformed cells were grown, induced, and harvested by centrifugation, and were then broken using a French pressure cell. […] The column was equilibrated with 50 mM Tris HCl buffer, pH 7.4, containing 5 mM L-glutamate, 5 mM MgCl2, and 5 mM β-mercaptoethanol, and the high-speed supernatant was loaded. After washing the column with equilibration buffer to remove proteins lacking a His-tag, the expressed His8-tagged protein was eluted using the same buffer supplemented with 200 mM imidazole. Amount of γ-GCS activity was determined as described in Example 2. […] It was observed that the purified enzyme catalyzed both the γ-GCS and the GS reactions. Since the GS-specific activity was higher than the specific activity for any known GS enzyme, it was apparent that the expressed 85 kDa S. agalactiae protein (rather than a trace impurity), accounted for the observed GS activity. Using the pREP4 auxiliary plasmid instead of the pRARE plasmid gave somewhat lower yields (325 mg total protein vs. 442 mg protein using pRARE) but the specific activities of the γ-GCS activity (870 units/mg) and GS activities (1143 units/mg) were similar.
Results for E. coli GS are from H. Gushima et al. J. Appl. Biochem. 5, 210-218 (1983). Results for rat GS are from J. L. Luo et al. Biochem. Biophys. Res. Commun. 275, 577-581 (2000). Results for human GS are from R. Njalsson et al. Biochem. Biophys. Res. Commun. 289, 80-84 (2001) and R. Njalsson et al. Biochem. J. 349, 275-279 (2000).

[5] = biological target: S. mutans γ-GCS-GS (Streptococcus mutans serotype c, UniProt Q8DW15); assay: γ-GCS activity of S. mutans γ-GCS-GS
Description: 3′ and 5′ […] 3′ and introduced unique Bgl II and Hind III sites (underlined), respectively.

[6] = biological target: E. faecalis γ-GCS-GS (Enterococcus faecalis, UniProt Q82ZG8); assay: γ-GCS activity of E. faecalis γ-GCS-GS
[7] = biological target: T3, Human γ-GCSc (Homo sapiens, UniProt P48506); conditions: catalytic subunit only, cited from earlier work; for Km: substrate Km
T3 sequence (P48506 1-637): T2 sequence (P48506 1-637)

[8] = biological target: E. coli GS (Escherichia coli, UniProt P04425); conditions: cited from earlier work; for Km: substrate Km
[9] = biological target: T4, Human GS (Homo sapiens, UniProt P48637); conditions: cited from earlier work
T4 sequence (P48637 1-474): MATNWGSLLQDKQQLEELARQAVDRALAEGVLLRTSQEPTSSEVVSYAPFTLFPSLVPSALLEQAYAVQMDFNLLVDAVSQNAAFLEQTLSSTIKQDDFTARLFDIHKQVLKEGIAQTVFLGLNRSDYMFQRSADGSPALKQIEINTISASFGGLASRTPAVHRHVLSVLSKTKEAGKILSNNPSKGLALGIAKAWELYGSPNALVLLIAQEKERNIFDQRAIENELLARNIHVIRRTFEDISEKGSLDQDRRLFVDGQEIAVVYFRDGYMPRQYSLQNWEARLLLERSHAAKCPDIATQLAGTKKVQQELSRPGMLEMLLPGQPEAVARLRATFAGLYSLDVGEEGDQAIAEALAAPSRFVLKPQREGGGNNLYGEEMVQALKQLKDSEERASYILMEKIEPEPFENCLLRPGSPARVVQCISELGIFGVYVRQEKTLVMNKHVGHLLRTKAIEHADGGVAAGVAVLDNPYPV

[10] = biological target: T5, Rat GS (Rattus norvegicus, UniProt P46413); conditions: cited from earlier work
T5 sequence (P46413 1-474): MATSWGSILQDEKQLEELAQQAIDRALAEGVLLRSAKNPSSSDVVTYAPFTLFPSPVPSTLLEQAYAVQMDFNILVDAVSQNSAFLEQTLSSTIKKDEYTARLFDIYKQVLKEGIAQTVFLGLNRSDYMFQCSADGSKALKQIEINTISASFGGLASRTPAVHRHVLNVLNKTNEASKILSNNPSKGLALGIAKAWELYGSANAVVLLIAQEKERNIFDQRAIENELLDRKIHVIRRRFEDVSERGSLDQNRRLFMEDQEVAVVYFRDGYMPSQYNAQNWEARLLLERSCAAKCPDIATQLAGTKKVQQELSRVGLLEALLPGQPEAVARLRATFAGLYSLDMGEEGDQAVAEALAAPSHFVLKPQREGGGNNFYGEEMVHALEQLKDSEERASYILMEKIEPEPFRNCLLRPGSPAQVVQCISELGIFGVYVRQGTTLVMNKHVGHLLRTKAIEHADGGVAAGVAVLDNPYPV

[11] = system: N[C@@H](CS)C(=O)O; assay: purified protein, by the assay type; conditions: other: substrate Km, γ-GCS activity
Experimental: Expression yielded less soluble protein than seen with S. agalactiae and E. faecalis γ-GCS-GS, but the enzyme was nonetheless isolated in about 10% purity as judged by Coomasie blue stained SDS-PAGE gels. Although both γ-GCS and GS activities were determined to be present, only the γ-GCS activity has been characterized to date in terms of substrate affinities.

[12] = MSO also pre-incubated with MgATP, absence of L-glutamate

Chain of S. mutans γ-GCS-GS (Q8DW15 whole entry): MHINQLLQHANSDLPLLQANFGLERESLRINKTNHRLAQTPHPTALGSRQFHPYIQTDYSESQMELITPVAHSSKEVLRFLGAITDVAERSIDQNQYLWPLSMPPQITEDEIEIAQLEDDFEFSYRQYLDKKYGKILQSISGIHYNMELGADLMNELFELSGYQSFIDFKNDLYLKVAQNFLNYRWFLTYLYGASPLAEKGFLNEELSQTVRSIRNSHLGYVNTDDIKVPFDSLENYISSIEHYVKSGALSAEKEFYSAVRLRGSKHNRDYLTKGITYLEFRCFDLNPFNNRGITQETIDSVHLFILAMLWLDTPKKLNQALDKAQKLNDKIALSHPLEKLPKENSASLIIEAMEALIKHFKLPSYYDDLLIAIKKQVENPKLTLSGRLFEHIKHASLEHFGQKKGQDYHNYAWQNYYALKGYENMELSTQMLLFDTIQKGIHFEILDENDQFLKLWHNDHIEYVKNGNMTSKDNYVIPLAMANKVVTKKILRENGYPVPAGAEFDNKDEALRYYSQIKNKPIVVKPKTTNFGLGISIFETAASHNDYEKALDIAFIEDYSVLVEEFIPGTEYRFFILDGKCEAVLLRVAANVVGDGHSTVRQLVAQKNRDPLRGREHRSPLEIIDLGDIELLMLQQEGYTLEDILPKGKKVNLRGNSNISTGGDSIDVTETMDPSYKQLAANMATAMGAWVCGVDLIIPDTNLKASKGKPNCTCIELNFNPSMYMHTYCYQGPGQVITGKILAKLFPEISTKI
Chain of E. coli γ-GCS (P0A6W9 whole entry): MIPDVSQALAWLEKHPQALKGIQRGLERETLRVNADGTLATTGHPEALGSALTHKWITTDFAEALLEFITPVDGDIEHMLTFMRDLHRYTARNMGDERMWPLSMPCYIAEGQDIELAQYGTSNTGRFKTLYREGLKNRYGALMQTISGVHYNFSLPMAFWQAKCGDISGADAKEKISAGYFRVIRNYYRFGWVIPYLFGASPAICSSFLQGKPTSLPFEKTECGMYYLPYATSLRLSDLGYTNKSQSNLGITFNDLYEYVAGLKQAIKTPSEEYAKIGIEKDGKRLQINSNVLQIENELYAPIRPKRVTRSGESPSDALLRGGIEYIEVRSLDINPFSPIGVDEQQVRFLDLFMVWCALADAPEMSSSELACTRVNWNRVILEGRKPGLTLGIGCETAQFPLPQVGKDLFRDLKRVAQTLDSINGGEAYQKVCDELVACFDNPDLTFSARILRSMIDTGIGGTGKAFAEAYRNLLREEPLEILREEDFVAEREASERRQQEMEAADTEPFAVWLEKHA
Chain of E. coli GS (P04425 whole entry): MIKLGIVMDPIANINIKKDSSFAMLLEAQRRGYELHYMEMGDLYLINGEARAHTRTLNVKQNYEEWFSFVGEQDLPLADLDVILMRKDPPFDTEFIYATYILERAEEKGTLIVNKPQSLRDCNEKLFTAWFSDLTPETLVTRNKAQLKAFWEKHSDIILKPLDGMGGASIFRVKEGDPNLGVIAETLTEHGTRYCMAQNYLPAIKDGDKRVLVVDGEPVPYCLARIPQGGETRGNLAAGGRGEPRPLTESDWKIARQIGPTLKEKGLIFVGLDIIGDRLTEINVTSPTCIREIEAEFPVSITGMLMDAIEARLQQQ

CS(=N)(=O)CC[C@H](N)C(=O)O (mixture of isomers) [L-Methionine-S,R-sulfoximine]
Ki [1]: > 100 mM | inhibition of the γ-GCS activity (in words) [1, 12]: no significant inhibition

NC(CCP(=O)(O)O)C(=O)O (racemic) [D,L-2-amino-4-phosphonobutyric acid]
Ki [1]: 13 mM | inhibition of the γ-GCS activity (in words) [1, 12]: moderately good inhibitors

NC(CCCP(=O)(O)O)C(=O)O (racemic) [D,L-2-amino-5-phosphonovaleric acid]
Ki [1]: > 100 mM | inhibition of the γ-GCS activity (in words) [1]: not effective

NCCSSCCN [Cystamine, reference compound]
Ki [2]: no inhibition | Ki [3]: 2 mM | inhibition of γ-GCS activity [1]: no reproducibly measurable inhibition | Ki ([1]; inhibition of γ-GCS activity, initial reversible binding): no inhibition

N[C@@H](CCC(=O)N[C@@H](CS)C(=O)NCC(=O)O)C(=O)O [GSH, L-γ-glutamyl-L-cysteinylglycine, reference compound]
inhibition of GS activity [4]: does not significantly inhibit | Ki [5]: 67 ± 0.8 mM | Ki [6]: 25.1 ± 0.8 mM | Ki ([2]; read-out: Ki): 2.7 mM | Ki [3]: 5.8 mM | Ki [1]: no inhibition

N[C@@H](CS)C(=O)O [L-cysteine]
Vmax [2]: 3590 ± 200 units/mg | Km [3]: 100 ± 20 µM | Vmax [3]: ~1500 units/mg | Vmax [7]: ~1250 units/mg | Km [7]: 130 ± 10 µM

N[C@@H](CCC(=O)O)C(=O)O [L-glutamate]
Km ([5]; substrate Km, γ-GCS activity): 17000 ± 1000 µM | Km ([6]; substrate Km, γ-GCS activity): 79000 ± 14000 µM | Km [2]: 1900 ± 200 µM | Vmax [2]: 3170 ± 125 units/mg | Km [3]: 1900 ± 200 µM | Vmax [3]: ~1500 units/mg | Vmax [7]: ~1250 units/mg | Km [7]: 3200 ± 100 µM | Km [1]: 23000 ± 2000 µM | Vmax ([1]; γ-GCS activity): 1341 ± 145 units/mg

CC[C@H](N)C(=O)O [L-α-aminobutyrate]
Km [2]: 3900 ± 400 µM | Vmax [2]: 2970 ± 120 units/mg | Km [3]: 1300 µM | Vmax [3]: ~1500 units/mg | Vmax [7]: ~1250 units/mg | Km [7]: 1700 µM | Km ([1]; substrate Km, γ-GCS activity): 8300 ± 1000 µM | Vmax ([1]; γ-GCS activity): 1148 ± 73 units/mg

N[C@@H](CCC(=O)N[C@@H](CS)C(=O)O)C(=O)O [L-γ-glutamyl-L-cysteine]
Vmax [8]: 650 units/mg | Km [8]: 2600 µM

CP(=O)(O)CCC(N)C(=O)O.N (centres unmarked) [glufosinate (ammonium salt), glufosinate ammonium]
inhibition of the γ-GCS activity (in words) [1, 12]: moderately good inhibitors | Ki ([1]; inhibition of γ-GCS activity, initial reversible binding, read-out: Ki): 29 mM

NCC(=O)O [glycine]
Vmax [9]: 361 ± 84 units/mg | Km ([9]; substrate Km): 1300 ± 300 µM | Vmax [10]: 678 units/mg | Km ([10]; substrate Km): 913 µM | Vmax [8]: 650 units/mg | Km [8]: 2000 µM

S. mutans γ-GCS-GS (Streptococcus mutans UA159)
Km [11]: 144 ± 4 µM
